This experiment concerns the target T1, PLK1 (Homo sapiens, UniProt P53350).
T1 construct: Full-length, active GST-PLK1 is purified from Sf9 insect cells; made in house; host or cells: Sf9 insect cells
Kind of experiment: Biochemical Characterization Assay: HTRF kinase assay, GST-PLK1 phosphorylation of GST-p53. To be noted: GST-PLK1, GST-p53 substrate. Put shortly:
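HTRF read-out of p53 phosphorylation: after EDTA stop, anti-phospho-p53 antibody bound 30 min at 37 °C in HEPES pH 7 buffer, with Eu-anti-rabbit/APC-anti-GST detection. Kinase step used full-length Sf9-expressed GST-PLK1 (3 ug/mL) and E. coli GST-p53 substrate, 35 min at 37 °C.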
Background: TR-FRET usually uses a lanthanide donor and a delayed reading to cut background.

Structures are written as SMILES. pIC50: −log10 of the molar value. Some results are limits rather than exact numbers.

T1 sequence (P53350 whole entry): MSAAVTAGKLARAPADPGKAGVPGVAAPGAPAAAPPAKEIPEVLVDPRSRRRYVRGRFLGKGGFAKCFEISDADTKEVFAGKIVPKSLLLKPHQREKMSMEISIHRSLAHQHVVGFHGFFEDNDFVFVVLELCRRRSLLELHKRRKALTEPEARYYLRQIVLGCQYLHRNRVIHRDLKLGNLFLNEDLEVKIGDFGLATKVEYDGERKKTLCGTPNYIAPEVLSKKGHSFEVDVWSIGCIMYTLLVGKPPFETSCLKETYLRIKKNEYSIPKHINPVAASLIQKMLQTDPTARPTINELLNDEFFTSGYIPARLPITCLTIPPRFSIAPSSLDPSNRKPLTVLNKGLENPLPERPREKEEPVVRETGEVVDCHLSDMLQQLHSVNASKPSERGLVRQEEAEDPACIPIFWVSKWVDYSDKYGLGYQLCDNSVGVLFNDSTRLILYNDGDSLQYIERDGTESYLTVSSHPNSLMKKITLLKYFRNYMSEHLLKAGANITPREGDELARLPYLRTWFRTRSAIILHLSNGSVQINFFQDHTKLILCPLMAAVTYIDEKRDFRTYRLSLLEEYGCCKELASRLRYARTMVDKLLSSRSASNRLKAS

In the case of `CCOc1cc(C(=O)NC2CCN(C(=O)OC(C)(C)C)CC2)ccc1Nc1ncc2c(n1)N(C1CCCC1)CC(F)(F)C(=O)N2C` [Example I-221, 4-[4-(9-cyclopentyl-7,7-difluoro-5-methyl-6-oxo-6,7,8,9-tetrahydro-5H-pyrimido[4,5-b][1,4]diazepin-2-ylamino)-3-ethoxy-benzoylamino]-piperidine-1-carboxylic acid tert-butyl ester], the pIC50 (as a rule, the negative decadic logarithm of the IC50, by convention in mol/L) was 6.30 to 7.29.

For `COc1cc(C(=O)N[C@H]2CCN(C(=O)OC(C)(C)C)C2)ccc1Nc1ncc2c(n1)N(C1CCCC1)CC(F)(F)C(=O)N2C` [Example I-82, S-3-[4-(9-cyclopentyl-7,7-difluoro-5-methyl-6-oxo-6,7,8,9-tetrahydro-5H-pyrimido[4,5-b][1,4]diazepin-2-ylamino)-3-methoxy-benzoylamino]-pyrrolidine-1-carboxylic acid tert-butyl ester], for the setting “ATP”, the pIC50 is 7.30 to 9.00.

Regarding `COc1cc(C(=O)NCCCN(C)C)ccc1Nc1ncc2c(n1)N(C1CCC1)CC(F)(F)C(=O)N2C` [Example I-9, 4-(9-cyclobutyl-7,7-difluoro-5-methyl-6-oxo-6,7,8,9-tetrahydro-5H-pyrimido[4,5-b][1,4]diazepin-2-ylamino)-N-(3-dimethylamino-propyl)-3-methoxy-benzamide], the pIC50 (ATP) is 7.30 to 9.00.

As for `COc1cc(C(=O)NC2CCN(C)CC2)ccc1Nc1ncc2c(n1)N(C1CCCC1)CC(Cl)(Cl)C(=O)N2C` [Example I-298, 4-(7,7-dichloro-9-cyclopentyl-5-methyl-6-oxo-6,7,8,9-tetrahydro-5H-pyrimido[4,5-b][1,4]diazepin-2-ylamino)-3-methoxy-N-(1-methyl-piperidin-4-yl)-benzamide], the negative logarithm of the IC50 (pIC50) was 7.30 to 9.00.

`COc1cc(C(=O)NCCCN(C)C)ccc1Nc1ncc2c(n1)N([C@@H]1C[C@H]1c1ccccc1)CC(F)(F)C(=O)N2C` (relative stereo) [Example I-290, 4-[7,7-difluoro-5-methyl-6-oxo-9-(trans-2-phenyl-cyclopropyl)-6,7,8,9-tetrahydro-5H-pyrimido[4,5-b][1,4]diazepin-2-ylamino]-N-(3-dimethylamino-propyl)-3-methoxy-benzamide]: the pIC50 is 6.30 to 7.29.

Regarding `CCCN1C(=O)C(F)(F)CN(C2CCCC2)c2nc(Nc3ccc(C(=O)NC4CCOCC4)cc3)ncc21` [Example I-149, 4-(9-cyclopentyl-7,7-difluoro-6-oxo-5-propyl-6,7,8,9-tetrahydro-5H-pyrimido[4,5-b][1,4]diazepin-2-ylamino)-N-(tetrahydro-pyran-4-yl)-benzamide], the pIC50 (ATP) is 5.30 to 6.30.

Molecule `COc1cc(C(=O)N[C@H]2CCC[C@H]2C(N)=O)ccc1Nc1ncc2c(n1)N(C1CCCC1)CC(F)(F)C(=O)N2C` [Example I-44, N-[(1S,2R)-(2-carbamoyl-cyclopentyl)]-4-(9-cyclopentyl-7,7-difluoro-5-methyl-6-oxo-6,7,8,9-tetrahydro-5H-pyrimido[4,5-b][1,4]diazepin-2-ylamino)-3-methoxy-benzamide] had a pIC50 (ATP) of 7.30 to 9.00.

The molecule `NC(=O)c1ccc(Nc2ncc3c(n2)N(C2CCCC2)CC(F)(F)C(=O)N3)cc1` [Example I-132, 4-(9-cyclopentyl-7,7-difluoro-6-oxo-6,7,8,9-tetrahydro-5H-pyrimido[4,5-b][1,4]diazepin-2-ylamino)-benzamide] gave a negative-log IC50 (pIC50) (ATP) of less than 5.30.

Turning to `COc1cc(C(=O)NCCCN(C)C)ccc1Nc1ncc2c(n1)N(C1CCCC1)CC(F)(F)C(=O)N2C` [Example I-78, 4-(9-cyclopentyl-7,7-difluoro-5-methyl-6-oxo-6,7,8,9-tetrahydro-5H-pyrimido[4,5-b][1,4]diazepin-2-ylamino)-N-(3-dimethylamino-propyl)-3-methoxy-benzamide], the negative logarithm of the IC50 (pIC50) (ATP) is 7.30 to 9.00.

In turn, `CN1CCC(NC(=O)c2ccc(Nc3ncc4c(n3)N(C3CCC3)CC(F)(F)C(=O)N4C)cc2)CC1` [Example I-16, 4-(9-cyclobutyl-7,7-difluoro-5-methyl-6-oxo-6,7,8,9-tetrahydro-5H-pyrimido[4,5-b][1,4]diazepin-2-ylamino)-N-(1-methyl-piperidin-4-yl)-benzamide] showed a pIC50 (ATP) of 7.30 to 9.00.

Turning to `COc1cc(C(=O)NC2CCN(C)CC2)ccc1Nc1ncc2c(n1)N(CCc1ccccc1)CC(F)(F)C(=O)N2C` [Example I-276, 4-(7,7-difluoro-5-methyl-6-oxo-9-phenethyl-6,7,8,9-tetrahydro-5!-pyrimido[4,5-b][1,4]diazepin-2-ylamino)-3-methoxy-N-(1-methyl-piperidin-4-yl)-benzamide], the pIC50 was 7.30 to 9.00.

Molecule `COc1cc(C(N)=O)ccc1Nc1ncc2c(n1)N(CCc1cccs1)CC(F)(F)C(=O)N2C` [Example I-271, 4-[7,7-difluoro-5-methyl-6-oxo-9-(2-thiophen-2-yl-ethyl)-6,7,8,9-tetrahydro-5H-pyrimido[4,5-b][1,4]diazepin-2-ylamino]-3-methoxy-benzamide] gave a negative-log IC50 (pIC50) of 6.30 to 7.29.

In the case of `COc1cc(C(=O)N[C@@H]2CCN(C(=O)OC(C)(C)C)C[C@@H]2OC)ccc1Nc1ncc2c(n1)N(C1CCCC1)CC(F)(F)C(=O)N2C` (racemic) [Example I-56, rac-(3S,4R)-4-[4-(9-cyclopentyl-7,7-difluoro-5-methyl-6-oxo-6,7,8,9-tetrahydro-5H-pyrimido[4,5-b][1,4]diazepin-2-ylamino)-3-methoxy-benzoylamino]-3-methoxy-piperidine-1-carboxylic acid tert-butyl ester], the pIC50 (ATP) is 7.30 to 9.00.

For `COc1cc(C(=O)NCCCN2CCCCC2C)ccc1Nc1ncc2c(n1)N(C1CCCC1)CC(F)(F)C(=O)N2C` (stereo not drawn) [Example I-110, 4-(9-cyclopentyl-7,7-difluoro-5-methyl-6-oxo-6,7,8,9-tetrahydro-5H-pyrimido[4,5-b][1,4]diazepin-2-ylamino)-3-methoxy-N-[3-(2-methyl-piperidin-1-yl)-propyl]-benzamide], the pIC50 (ATP) is 7.30 to 9.00.

On to `COc1cc(C(=O)NC2CCN(C(C)C)CC2)ccc1Nc1ncc2c(n1)N(C1CCCC1)CC(F)(F)C(=O)N2C` [Example I-64, 4-(9-cyclopentyl-7,7-difluoro-5-methyl-6-oxo-6,7,8,9-tetrahydro-5H-pyrimido[4,5-b][1,4]diazepin-2-ylamino)-N-(1-isopropyl-piperidin-4-yl)-3-methoxy-benzamide], for which the negative logarithm of the IC50 (pIC50) (ATP) was 7.30 to 9.00.

As to `COc1cc(C(=O)N[C@H]2CCNC(=O)C2)ccc1Nc1ncc2c(n1)N(C1CCCC1)CC(F)(F)C(=O)N2C` [Example I-90, S-4-(9-cyclopentyl-7,7-difluoro-5-methyl-6-oxo-6,7,8,9-tetrahydro-5H-pyrimido[4,5-b][1,4]diazepin-2-ylamino)-3-methoxy-N-(2-oxo-piperidin-4-yl)-benzamide], for the setting “ATP”, the pIC50 is 7.30 to 9.00.

The molecule `CN(C)CCCNC(=O)c1ccc(Nc2ncc3c(n2)N(C2CCCC2)CC(F)(F)C(=O)N3C)c(F)c1` [Example I-227, 4-(9-cyclopentyl-7,7-difluoro-5-methyl-6-oxo-6,7,8,9-tetrahydro-5H-pyrimido[4,5-b][1,4]diazepin-2-ylamino)-N-(3-dimethylamino-propyl)-3-fluoro-benzamide] had a pIC50 of 7.30 to 9.00.

Regarding `CCCN1C(=O)C(F)(F)CN(C2CCCC2)c2nc(Nc3ccc(C(=O)NC4CCN(C)CC4)cc3OC)ncc21` [Example I-165, 4-(9-cyclopentyl-7,7-difluoro-6-oxo-5-propyl-6,7,8,9-tetrahydro-5H-pyrimido[4,5-b][1,4]diazepin-2-ylamino)-3-methoxy-N-(1-methyl-piperidin-4-yl)-benzamide], the pIC50 was 6.30 to 7.29.

For the molecule `COc1cc(C(=O)NCCCNC2CCCCC2)ccc1Nc1ncc2c(n1)N(C1CCCC1)CC(F)(F)C(=O)N2C` [Example I-53, N-(3-cyclohexylamino-propyl)-4-(9-cyclopentyl-7,7-difluoro-5-methyl-6-oxo-6,7,8,9-tetrahydro-5H-pyrimido[4,5-b][1,4]diazepin-2-ylamino)-3-methoxy-benzamide], the pIC50 (ATP) was 7.30 to 9.00.

`COc1cc(C(=O)NCCCN2CCOCC2)ccc1Nc1ncc2c(n1)N(C1CCCC1)CC(F)(F)C(=O)N2C` [Example I-79, 4-(9-cyclopentyl-7,7-difluoro-5-methyl-6-oxo-6,7,8,9-tetrahydro-5H-pyrimido[4,5-b][1,4]diazepin-2-ylamino)-3-methoxy-N-(3-morpholin-4-yl-propyl)-benzamide]: the pIC50 (ATP) was 7.30 to 9.00.

`COc1cc(C(N)=O)c(F)cc1Nc1ncc2c(n1)N(C1CCCC1)CC(F)(F)C(=O)N2C` [Example I-170, 4-(9-cyclopentyl-7,7-difluoro-5-methyl-6-oxo-6,7,8,9-tetrahydro-5H-pyrimido[4,5-b][1,4]diazepin-2-ylamino)-2-fluoro-5-methoxy-benzamide] showed a pIC50 of 7.30 to 9.00.

Values taken from patent publication US8003785B2 (Takeda Pharmaceutical Company Limited, priority 2008, dated 2011).
